Assay results taken from patent publication US8309550B2, “Kinase inhibitors and their use as pharmaceutical agents” (Shanghai Genomics, Inc., priority 2011, dated 2012).
Read-outs that look alike come from different tables or passages of the source.

Assays:
U2OS cells = test: 72 h MTT cytotoxicity assay U2OS; assay type: cell-based; settings: Homo sapiens
Text: (§1) MIT cytotoxicity assay. The compounds of the invention were subjected to a standard cellular proliferation assay using human cell lines. HeLa cells (Human cervix adenocarcinoma cell line, ATCC NO, CCL-2); A549 cells (Human lung carcinoma cells line, ATCC NO, CCL-185); U2OS cells (Human osteosarcoma cell line, ATCC NO, HTB-96); Eca-109 cells (Human esophageal carcinoma cell line); HepG2 (Human hepatocellular liver carcinoma cell line, ATCC NO, HB-8065); K562 cells (Human chronic myelogenous leukemia cell line, ATCC NO, CCL-243); SK-MEL-28 (Human malignant melanoma cell line, ATCC NO, HTB-72); Molt-4 (Human acute lymphoblastic leukemia cell line, ATCC NO, CRL-1582); H460 (Human large cell lung cancer cell line, ATCC NO, HTB-177); MDA-MB-231 (Human breast adenocarcinoma cell line, ATCC NO, HTB-26); MCF7 (Human breast adenocarcinoma cell line, ATCC NO, HTB-22); ACHN (Human renal cell adenocarcinoma cell line, ATCC NO, CRL-1611); PC-3M (Human prostate adenocarcinoma cell line, ATCC NO CRL-1435); HL60 (Human acute promyelocytic leukemia cell line, ATCC NO, CCL-240); THP-1 (Human acute monocytic leukemia, ATCC NO, TIB-202); Jurkat (Human acute T cell leukemia cell line, ATCC NO, CRL-2063); HCT-116 (Human colorectal carcinoma cell line, ATCC NO, CCL-247); HT-29 (Human colorectal adenocarcinoma cell line, ATCC NO, HTB-38™); WI-38 (Human normal lung cell line, ATCC NO, CCL-75); MRC-5 (Human normal lung cell line, ATCC NO, CCL-171).
(§2) HepG2, MDA-MB-231, WI-38 and MRC-5 cells were obtained from Shanghai Institute of Cell Biology, Chinese Academy of Sciences (Shanghai 200031, China). A549, HeLa, K562, MCF7, ACHN, H460, U2OS, Eca-109, MCF7, HL60, THP-1, Jurkat, HCT-116, HT-29, PC-3M, SK-MEL-28, Molt-4, H460 and […] cells were purchased from ATCC (American Type Culture Collection, USA).
(§3) Standard 72 h MTT (thiazolye blue; 3-[4,5-dimethylthiazol-2-yl]-2,5-diphenyltetrazolium bromide) assays were performed. Briefly, the cell lines used in this study were recovered and cultured according to the conditions recommended. 4000 cells per well were seeded into 96-well plates according to doubling time and incubated overnight at 37° C. Compounds were prepared in DMSO and a ½ dilution series in 100 μl cell culture media, added to cells (in duplicates) with the final DMSO concentration of 0.025%, and incubated for 72 hrs at 37° C. MTT solution (5 mg/ml) was added at 10 μl per well and incubated in the dark at 37° C. for 4 hr. Culture medium and MTT solution was removed. MTT dye was solubilised with 100 μl per well of DMSO with agitation. Absorbance was read at 562 nm and data analyzed using Sigmoid curve-fitting software Origin 6.0 (MicroCal, LLC, USA) to determine IC50 value.

CDK5/p35 = molecular target: T1, CDK5/p35 (Homo sapiens, UniProt Q00535); test: Z'-LYTE kinase assay CDK5/p35; assay type: biochemical
T1 construct: purchased Invitrogen PV3000
In short: (§4)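 Z′-LYTE FRET assay with recombinant human enzymes; CDK1/cyclinB and CDK5/p35 at 0.8 ng/reaction on Ser/Thr 12 peptide. Compound and kinase incubated 1 hr at room temperature in 20 μM ATP, HEPES pH 7.5, MgCl2, EGTA, Brij-35, then developed 1 hr. Phosphorylation derived from 445/520 nm emission ratio (400 nm excitation); IC50 from sigmoid curve fit.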

CDK2/cyclinA = molecular target: T2, CDK2/cyclinA (Homo sapiens, UniProt P24941); test: Z'-LYTE kinase assay CDK2/cyclinA; assay type: biochemical
T2 construct: purchased Invitrogen PV3267
In short: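 This Z′-LYTE™ fluorescence assay measured inhibition of human CDK2/cyclinA. After the 1 hr kinase reaction, development buffer was added for another hour at room temperature, then stop buffer. The 445 nm/520 nm emission ratio, excited at 400 nm, was read on a VICTOR-3 Multilabel Reader and converted to phosphorylation. Compounds were prepared as 10 mM DMSO stocks.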

Aurora B = Aurora B (Homo sapiens, UniProt Q96GD4); test: Kinase assay Aurora B (Table I); assay type: biochemical
CDK1/cyclinB = molecular target: T3, CDK1/cyclinB (Homo sapiens, UniProt P06493); test: Z'-LYTE kinase assay CDK1/cyclinB; assay type: biochemical
T3 construct: purchased Invitrogen PV3292
In short: as §4

Aurora A = molecular target: T4, Aurora A (Homo sapiens, UniProt O14965); test: Z'-LYTE kinase assay Aurora A; assay type: biochemical
T4 construct: purchased Invitrogen PV3612
T4 sequence (O14965 1-403): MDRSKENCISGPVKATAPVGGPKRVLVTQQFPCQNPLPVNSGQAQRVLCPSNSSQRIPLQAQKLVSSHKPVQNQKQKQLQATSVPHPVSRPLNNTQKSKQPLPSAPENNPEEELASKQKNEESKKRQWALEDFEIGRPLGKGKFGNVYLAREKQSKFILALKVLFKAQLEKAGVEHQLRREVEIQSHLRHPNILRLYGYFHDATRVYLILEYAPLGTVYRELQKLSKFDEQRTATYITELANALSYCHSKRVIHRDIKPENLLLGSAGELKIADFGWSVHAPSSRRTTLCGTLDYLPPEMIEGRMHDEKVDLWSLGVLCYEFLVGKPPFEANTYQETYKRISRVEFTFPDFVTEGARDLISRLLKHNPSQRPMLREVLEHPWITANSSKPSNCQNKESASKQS
In short: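 Aurora A inhibition was measured by Z′-LYTE™. After a one-hour kinase reaction at room temperature, development buffer was added for another hour, then stop buffer. A VICTOR-3 reader recorded the 445 nm/520 nm emission ratio with excitation at 400 nm. Phosphorylation was derived from this ratio, and IC50 was obtained by sigmoid fitting in Origin 6.0.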

H460-luc = test: 72 h MTT cytotoxicity assay H460-luc; assay type: cell-based; settings: Homo sapiens
Text: as §1, §2, §3

[1] = read-out: Kinase inhibition, IC50 CDK5/p35
[2] = read-out: Kinase inhibition, IC50 CDK2A
[3] = read-out: Kinase inhibition, IC50 Aurora B
[4] = read-out: Kinase inhibition, IC50 CDK1B
[5] = read-out: Kinase inhibition, IC50 Aurora A
[6] = NCI-H460-Luc, H460-luc, 72 hrs, read-out: Cytotoxicity, MTT 72 hrs, IC50 H460-luc
[7] = Table III, read-out: Target biochemical activity IC50 CDK5
[8] = Table III, read-out: Target biochemical activity IC50 CDK2
[9] = Table III, read-out: Target biochemical activity IC50 Aurora B
[10] = Table III, read-out: Target biochemical activity IC50 CDK1
[11] = Table III, read-out: Target biochemical activity IC50 Aurora A
[12] = H460, Table III, read-out: Cellular effect in mammalian cells IC50 H460

T1 sequence (Q00535 whole entry): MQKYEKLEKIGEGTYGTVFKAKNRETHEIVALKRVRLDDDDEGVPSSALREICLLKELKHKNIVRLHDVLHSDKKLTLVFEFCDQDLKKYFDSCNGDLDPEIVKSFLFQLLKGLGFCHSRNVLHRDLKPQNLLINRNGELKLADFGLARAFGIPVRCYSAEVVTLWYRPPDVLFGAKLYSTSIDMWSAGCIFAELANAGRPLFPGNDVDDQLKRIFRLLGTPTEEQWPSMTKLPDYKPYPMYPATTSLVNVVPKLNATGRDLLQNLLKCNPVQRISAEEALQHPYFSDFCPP
T1 sequence (Q15078 whole entry partner): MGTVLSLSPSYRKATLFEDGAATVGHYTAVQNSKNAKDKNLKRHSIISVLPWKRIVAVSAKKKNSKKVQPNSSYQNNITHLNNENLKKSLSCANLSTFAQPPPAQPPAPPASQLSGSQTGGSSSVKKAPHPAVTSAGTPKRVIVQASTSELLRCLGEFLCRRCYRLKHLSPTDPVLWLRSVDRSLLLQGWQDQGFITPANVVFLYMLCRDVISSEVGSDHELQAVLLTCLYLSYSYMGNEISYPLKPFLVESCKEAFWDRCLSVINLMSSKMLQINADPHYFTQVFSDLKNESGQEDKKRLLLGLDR
Sequence of Aurora B (Q96GD4 whole entry): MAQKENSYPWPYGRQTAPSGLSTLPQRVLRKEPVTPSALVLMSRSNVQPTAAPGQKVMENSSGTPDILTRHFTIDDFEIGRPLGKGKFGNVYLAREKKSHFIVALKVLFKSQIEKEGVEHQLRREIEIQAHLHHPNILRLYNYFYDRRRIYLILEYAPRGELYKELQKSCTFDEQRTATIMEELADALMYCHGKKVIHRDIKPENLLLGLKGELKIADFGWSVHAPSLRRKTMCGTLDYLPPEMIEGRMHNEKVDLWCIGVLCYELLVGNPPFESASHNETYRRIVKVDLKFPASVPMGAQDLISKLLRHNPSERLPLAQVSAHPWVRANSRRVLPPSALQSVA
T3 sequence (P06493 whole entry): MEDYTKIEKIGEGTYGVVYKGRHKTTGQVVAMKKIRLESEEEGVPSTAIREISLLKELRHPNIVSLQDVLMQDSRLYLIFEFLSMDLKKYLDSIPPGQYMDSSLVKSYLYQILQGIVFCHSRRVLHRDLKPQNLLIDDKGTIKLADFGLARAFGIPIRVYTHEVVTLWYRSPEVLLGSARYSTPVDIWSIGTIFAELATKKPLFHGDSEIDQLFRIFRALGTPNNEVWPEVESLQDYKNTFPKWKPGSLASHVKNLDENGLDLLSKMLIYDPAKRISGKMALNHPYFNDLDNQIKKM
T3 sequence (P14635 whole entry partner): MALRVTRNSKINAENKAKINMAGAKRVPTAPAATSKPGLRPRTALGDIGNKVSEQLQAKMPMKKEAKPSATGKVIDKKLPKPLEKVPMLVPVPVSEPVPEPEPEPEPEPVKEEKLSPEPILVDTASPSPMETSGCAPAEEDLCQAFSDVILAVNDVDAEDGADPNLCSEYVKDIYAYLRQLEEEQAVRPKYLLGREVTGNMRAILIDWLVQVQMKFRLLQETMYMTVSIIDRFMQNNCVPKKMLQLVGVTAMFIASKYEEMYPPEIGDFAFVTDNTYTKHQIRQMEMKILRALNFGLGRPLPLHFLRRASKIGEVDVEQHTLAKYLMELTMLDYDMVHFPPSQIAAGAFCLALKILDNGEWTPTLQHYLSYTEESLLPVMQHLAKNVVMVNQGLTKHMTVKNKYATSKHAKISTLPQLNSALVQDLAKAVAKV

IC50 (CDK5/p35; [1])	IC50 (CDK2/cyclinA; [2])	IC50 (Aurora B; [3])	IC50 (CDK1/cyclinB; [4])	IC50 (Aurora A; [5])	IC50 (CDK5/p35; [7])	IC50 (CDK2/cyclinA; [8])	IC50 (Aurora B; [9])	IC50 (CDK1/cyclinB; [10])	IC50 (Aurora A; [11])	SMILES	IC50 (U2OS cells)	IC50 (H460-luc; [6])	IC50 (H460-luc; [12])
25 nM	30 nM	3420 nM	70 nM	1650 nM						CCCn1cc(-c2ccnc(Nc3ccc(C)c(S(=O)(=O)N4CCOCC4)c3)n2)c2ccncc21 [Compound 102, N-(4-Methyl-3-(morpholinosulfonyl)phenyl)-4-(1-propyl-1H-pyrrolo[2,3-c]pyridin-3-yl)pyrimidin-2-amine]	570 nM	220 nM	
0.5 nM	0.5 nM	59 nM	0.4 nM	50 nM						CCCn1cc(-c2ccnc(Nc3cccc(S(N)(=O)=O)c3)n2)c2ccncc21 [Compound 111, 3-(4-(1-Propyl-1H-pyrrolo[2,3-c]pyridin-3-yl)pyrimidin-2-ylamino)benzenesulfonamide]	30 nM	6 nM	
20 nM	< 0.1 nM	> 10000 nM	< 0.1 nM	800 nM						CCCn1cc(-c2ccnc(Nc3cccc(S(N)(=O)=O)c3)n2)c2ccnc(Cl)c21 [Compound 96, 3-(4-(7-chloro-1-propyl-1H-pyrrolo[2,3-c]pyridin-3-yl)pyrimidin-2-ylamino)benzenesulfonamide]	230 nM	260 nM	
					> 10000 nM	> 10000 nM	190 nM	6840 nM	98 nM	CCCn1cc(-c2ccnc(Nc3cccc(S(N)(=O)=O)c3)n2)c2nc(Cl)cc(C)c21 [SG53]			2000 nM
271 nM	3 nM	700 nM	624 nM	30 nM	271 nM	3 nM	700 nM	624 nM	30 nM	CCn1cc(-c2ccnc(Nc3cccc(S(N)(=O)=O)c3)n2)c2cccnc21 [Compound 18, 3-(4-(1-Ethyl-1H-pyrrolo[2,3-b]pyridin-3-yl)pyrimidin-2-ylamino)benzenesulfonamide]	3070 nM	1270 nM	1270 nM
					25 nM	30 nM	1000 nM	70 nM	1650 nM	CCCn1cc(-c2ccnc(Nc3ccc(C)c(S(=O)(=O)N4CCOCC4)c3)n2)c2ccncc21 [SG52]			220 nM
2320 nM	6 nM	1250 nM	1360 nM	> 10000 nM						CCCn1cc(-c2ccnc(Nc3cccc(O)c3)n2)c2cccnc21 [Compound 16, 3-(4-(1-Propyl-1H-pyrrolo[2,3-b]pyridin-3-yl)pyrimidin-2-ylamino)phenol]	7420 nM	4060 nM	
2240 nM	28 nM	670 nM	1670 nM	210 nM						CCCn1cc(-c2ccnc(Nc3ccc(O)cc3)n2)c2cccnc21 [Compound 15, 4-(4-(1-Propyl-1H-pyrrolo[2,3-b]pyridin-3-yl)pyrimidin-2-ylamino)phenol]	7440 nM	4980 nM	
8900 nM	4580 nM	≥ 10000 nM	5190 nM	9440 nM						CCCn1cc(-c2ccnc(Nc3ccc(C)c(S(=O)(=O)N4CCOCC4)c3)n2)c2cccnc21 [Compound 24, N-(4-Methyl-3-(morpholinosulfonyl)phenyl)-4-(1-propyl-1H-pyrrolo[2,3-b]pyridin-3-yl)pyrimidin-2-amine]	3300 nM	1410 nM	
					0.5 nM	0.5 nM	59 nM	0.4 nM	50 nM	CCCn1cc(-c2ccnc(Nc3cccc(S(N)(=O)=O)c3)n2)c2ccncc21 [SG51]			< 100 nM
1.3 nM	10 nM	1.6 nM	0.4 nM	820 nM						CCCn1cc(-c2ccnc(Nc3ccc(S(N)(=O)=O)cc3)n2)c2ccncc21 [Compound 112, 4-(4-(1-Propyl-1H-pyrrolo[2,3-c]pyridin-3-yl)pyrimidin-2-ylamino)benzenesulfonamide]	10 nM	20 nM	
4610 nM	3480 nM	> 10000 nM	7010 nM	6990 nM						CCn1cc(-c2ccnc(Nc3cccc(C#N)c3)n2)c2cccnc21 [Compound 20, 3-(4-(1-Ethyl-1H-pyrrolo[2,3-b]pyridin-3-yl)pyrimidin-2-ylamino)benzonitrile]	> 10000 nM	> 10000 nM	
					> 10000 nM	1670 nM	320 nM	> 10000 nM	620 nM	CCCn1cc(-c2ccnc(Nc3ccc(S(N)(=O)=O)cc3)n2)c2nc(Cl)cc(C)c21 [SG54]			1030 nM
> 10000 nM	> 10000 nM	190 nM	6840 nM	98 nM						CCCn1cc(-c2ccnc(Nc3cccc(S(N)(=O)=O)c3)n2)c2nc(Cl)cc(C)c21 [Compound 42, 3-(4-(5-Chloro-7-methyl-1-propyl-1H-pyrrolo[3,2-b]pyridin-3-yl)pyrimidin-2-ylamino)benzenesulfonamide]	1860 nM	2000 nM	
400 nM	190 nM	3600 nM	450 nM	8 nM						CCCn1cc(-c2ccnc(Nc3cccc(S(N)(=O)=O)c3)n2)c2cccnc21 [Compound 22, 3-(4-(1-Propyl-1H-pyrrolo[2,3-b]pyridin-3-yl)pyrimidin-2-ylamino)benzenesulfonamide]	2130 nM	1110 nM	
